In PubChem BioAssay (NCI):
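Where inhibition never reached the appropriate level, the endpoint shown equals the highest concentration tested. Otherwise, values were interpolated linearly from a five-concentration, 48-hour dose response in 96-well plates. TGI marks complete inhibition of growth.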

What was measured:
Assay in all cases: NCI anticancer screen, dose series, 48 h
BT-549 breast = tested on: BT-549 breast
IGROV1 ovarian = tested on: IGROV1 ovarian
HOP-62 NSCLC = tested on: HOP-62 NSCLC
SK-MEL-5 melanoma = tested on: SK-MEL-5 melanoma
HCT-116 colon = tested on: HCT-116 colon
KM12 colon = tested on: KM12 colon
UO-31 renal = tested on: UO-31 renal
CAKI-1 renal = tested on: CAKI-1 renal
SF-268 CNS = tested on: SF-268 CNS
LOX IMVI melanoma = tested on: LOX IMVI melanoma
RXF 393 renal = tested on: RXF 393 renal
MALME-3M melanoma = tested on: MALME-3M melanoma
SW-620 colon = tested on: SW-620 colon
HL-60(TB) leukemia = tested on: HL-60(TB) leukemia
NCI-H226 lung = tested on: NCI-H226 lung
PC-3 prostate = tested on: PC-3 prostate
HOP-92 NSCLC = tested on: HOP-92 NSCLC
DU-145 prostate = tested on: DU-145 prostate
786-0 renal = tested on: 786-0 renal
M14 melanoma = tested on: M14 melanoma

Row | SMILES | TGI (BT-549 breast) | TGI (IGROV1 ovarian) | TGI (HOP-62 NSCLC) | TGI (SK-MEL-5 melanoma) | TGI (HCT-116 colon) | TGI (KM12 colon) | TGI (UO-31 renal) | TGI (CAKI-1 renal) | TGI (SF-268 CNS) | TGI (LOX IMVI melanoma) | TGI (RXF 393 renal) | TGI (MALME-3M melanoma) | TGI (SW-620 colon) | TGI (HL-60(TB) leukemia) | TGI (NCI-H226 lung) | TGI (PC-3 prostate) | TGI (HOP-92 NSCLC) | TGI (DU-145 prostate) | TGI (786-0 renal) | TGI (M14 melanoma)
1 | CC1(C)C2CC3C4CC5(Nc6ccccc6C5N41)[C@]3(C)CC2=O (some centres undefined) | > 50 µM | > 50 µM | > 50 µM | > 50 µM | > 50 µM | > 50 µM | > 50 µM | > 50 µM | > 50 µM | > 50 µM | > 50 µM | > 50 µM | > 50 µM | > 50 µM | > 50 µM | > 50 µM | > 50 µM | > 50 µM | > 50 µM | 
2 | O=C1c2ccccc2CC12Cc1ccccc1C2 | > 100 µM | > 100 µM | > 100 µM | 56.1 µM | > 100 µM | > 100 µM | > 100 µM | > 100 µM | > 100 µM | > 100 µM | 70.1 µM | > 100 µM | > 100 µM | 48.4 µM | > 100 µM | > 100 µM | 91.9 µM | > 100 µM | > 100 µM | > 100 µM
3 | N#Cc1c(Cl)nc2ccccc2c1N=[N+]=[N-] | 4.16 µM | 3.9 µM | 32.7 µM | 27.7 µM | 3.06 µM | 17.8 µM | 9.4 µM | 3.12 µM | 11.2 µM | 3.47 µM | 2.93 µM | 3.75 µM | 3.54 µM | 3.3 µM | 33.1 µM | 8.44 µM | 3.32 µM | 28.1 µM | 7.17 µM | 6.48 µM
4 | N#Cc1c(O)c(N=Nc2ccc(Cl)cc2)c(=O)n2c1[nH]c1ccccc12 | > 100 µM | > 100 µM | 65.3 µM | > 100 µM | > 100 µM | > 100 µM | > 100 µM | > 100 µM | > 100 µM | > 100 µM | > 100 µM | > 100 µM | > 100 µM | > 100 µM | > 100 µM | > 100 µM | 76.9 µM | > 100 µM | > 100 µM | > 100 µM
5 | O=C1NC(=O)/C(=C/c2ccc(S(=O)(=O)N/N=C\C(O)C(O)C(O)C(O)CO)cc2)N1 (centres undefined) | > 100 µM | > 100 µM | > 100 µM | > 100 µM | > 100 µM | > 100 µM | > 100 µM | > 100 µM | > 100 µM | > 100 µM | > 100 µM | > 100 µM | > 100 µM | > 100 µM | > 100 µM | > 100 µM | > 100 µM | > 100 µM | > 100 µM | > 100 µM
6 | COc1ccc2c(c1)CCCN2S(=O)(=O)c1ccccc1[N+](=O)[O-] | 66.7 µM | > 100 µM | > 100 µM | 62.2 µM | 88.9 µM | > 100 µM | > 94.5 µM | > 100 µM | > 96.8 µM | > 88.6 µM | 55.9 µM | > 86.3 µM | > 100 µM | 37.1 µM | > 96.2 µM | > 100 µM | 97.8 µM | > 100 µM | > 100 µM | > 92.8 µM
7 | CN1C=Cc2nccc3cc4c(c1c23)OCO4 | 7.36 µM | > 39.2 µM | 32.7 µM | 4.84 µM | 35.2 µM | 17.6 µM | 34.9 µM | 5.77 µM | 11.3 µM | > 100 µM | 7.61 µM | 0.836 µM | > 100 µM | > 100 µM | 43.5 µM | 40.9 µM | > 68.5 µM | > 25.1 µM | 24.8 µM | 11.7 µM
8 | CC1=CC(C)C(C)N(CCNS(=O)(=O)c2ccc(C)cc2)c2ccccc21 (centres undefined) | 31.7 µM | 23.4 µM | 27 µM |  | 17.7 µM | 37.3 µM | > 31.6 µM | > 31.6 µM | 19.6 µM | 17 µM | 17.7 µM | 23 µM |  | 22.8 µM | 17.8 µM | 30.5 µM | 36.1 µM | 24.7 µM | 20.8 µM | 17.5 µM
9 | CCCCCCOc1ccc(C(=O)N(C)O)cc1 | > 100 µM | > 100 µM | > 83.5 µM | 62.5 µM | > 100 µM | > 100 µM | 60.9 µM | > 91.2 µM | 55.7 µM | > 100 µM | 97.6 µM | 57.3 µM | > 100 µM | 33.2 µM | 59.5 µM | 98 µM | > 100 µM | 66 µM | 55.7 µM | 39.3 µM
10 | CC(=O)c1cccc(NC(=O)C(=O)C(c2cnc3ccc([N+](=O)[O-])cc3n2)[N+](=O)[O-])c1 (centres undefined) | > 100 µM | > 100 µM | > 100 µM |  | > 100 µM | > 100 µM | > 100 µM | > 100 µM | > 100 µM | > 100 µM | > 100 µM | > 100 µM | > 100 µM | > 100 µM | > 100 µM | > 100 µM | > 100 µM | > 100 µM | > 100 µM | > 100 µM
11 | Cc1ccc(/C=C2\CCCC(CN(C)C)C2=O)cc1 (centres undefined) | 6.4 µM | 4.15 µM | 34.7 µM | 12.5 µM | 3.1 µM | 3.57 µM | 3.12 µM | 2.88 µM |  | 3.38 µM | 3.34 µM | 3.77 µM | 2.88 µM | > 100 µM | 6.82 µM | 8.9 µM | 3.75 µM | 21.9 µM | 3.23 µM | 3.31 µM
12 | CN(C)c1ccc(-c2ccc(N(C)C)c3n[se]nc23)c2n[se]nc12 | > 100 µM | > 100 µM | > 100 µM | > 100 µM | > 100 µM | > 100 µM | > 100 µM | > 100 µM | > 100 µM | > 100 µM | > 100 µM | > 100 µM | > 100 µM | > 100 µM | > 100 µM | > 100 µM | > 100 µM | > 100 µM | > 100 µM | 
